According to the supplement of paper PMC10733146:

Legend:
Assay in all cases: viability relative to DMSO control (fraction); higher = less drug effect (more viable cells)
Conditions in all cases: 48 h
[1] = compound: CC#CC(=O)N1CC[C@@H](n2c(=O)n(-c3ccc(Oc4ccccc4)cc3)c3c(N)ncnc32)C1 [ONO-4059]
Summary of the method: (§1)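 Compounds were pre-plated at five concentrations, one well each, in 384-well plates, and primary mononuclear tumour cells were plated on them at 4 × 10^4 cells per well. The cells, fresh or cryopreserved, had been Ficoll-isolated from blood or bone marrow or taken from processed lymph node. After 48 h at 37 °C and 5% CO2 in RPMI-1640 with penicillin/streptomycin, L-glutamine and human serum, viability was read as CellTiter-Glo luminescence relative to the median of 16 inner DMSO wells.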

[2] = compound: CC(=O)[C@]1(O)Cc2c(O)c3c(c(O)c2[C@@H](O[C@H]2C[C@H](N)[C@H](O)[C@H](C)O2)C1)C(=O)c1ccccc1C3=O [Idarubicin]
Summary of the method: as §1

[3] = compound: CC(C)(C)OC(=O)Nc1ccc(-c2cc(C(=O)NCCCCCCC(=O)NO)no2)cc1
Summary of the method: as §1

[4] = compound: CC(C)(C)c1cc(NC(=O)Nc2ccc(-c3cn4c(n3)sc3cc(OCCN5CCOCC5)ccc34)cc2)no1 [Quizartinib]
Summary of the method: as §1

[5] = compound: CC(C)C[C@H](NC(=O)[C@H](CCc1ccccc1)NC(=O)CN1CCOCC1)C(=O)N[C@@H](Cc1ccccc1)C(=O)N[C@@H](CC(C)C)C(=O)[C@@]1(C)CO1 [Carfilzomib]
Summary of the method: as §1

[6] = compound: CC(C)N(C[C@H]1O[C@@H](n2cnc3c(N)ncnc32)[C@H](O)[C@@H]1O)[C@H]1C[C@@H](CCc2nc3cc(C(C)(C)C)ccc3[nH]2)C1 [EPZ-5676]
Summary of the method: as §1

[7] = compound: CCCS(=O)(=O)Nc1ccc(F)c(C(=O)c2c[nH]c3ncc(-c4ccc(Cl)cc4)cc23)c1F [Vemurafenib]
Summary of the method: as §1

[8] = compound: CCOc1cc(C(=O)N2CCC(N3CCN(C)CC3)CC2)ccc1Nc1ncc2c(n1)N(C1CCCC1)c1ccccc1C(=O)N2C [ERK5-IN-1]
Summary of the method: as §1

[9] = compound: CC[C@@H]1C(=O)N(C)c2cnc(Nc3ccc(C(=O)N[C@H]4CC[C@H](N5CCN(CC6CC6)CC5)CC4)cc3OC)nc2N1C(C)C [BI6727]
Summary of the method: as §1

[10] = compound: COc1c(Cl)cc2c([nH]c3cnccc32)c1NC(=O)c1cccnc1C [MLN-120B]
Summary of the method: as §1

[11] = compound: Cc1[nH]c2ccccc2c1CCNCc1ccc(/C=C/C(=O)NO)cc1 [Panobinostat]
Summary of the method: as §1

[12] = compound: Cc1cc(Nc2cc(N3CCN(C)CC3)nc(Sc3ccc(NC(=O)C4CC4)cc3)n2)n[nH]1 [Tozasertib]
Summary of the method: as §1

[13] = compound: NC(=O)Nc1cc(-c2cccc(F)c2)sc1C(=O)N[C@H]1CCCNC1 [AZD7762]
Summary of the method: as §1

[14] = compound: Nc1nc(Cl)nc2c1ncn2[C@H]1C[C@H](O)[C@@H](CO)O1 [Cladribine]
Summary of the method: as §1

[15] = compound: OCc1ccc(-c2ccc(-c3ccc(CO)s3)o2)s1
Summary of the method: as §1

primary FL patient cells (S022) gave a viability ([1]; 0.0016 µM) of 1.05, a viability ([1]; 0.008 µM) of 1.02 and a viability ([1]; 0.04 µM) of 1.06. For the same test system, the viability ([1]; 0.2 µM) was 0.985, the viability ([1]; 1 µM) was 1.13 and the viability ([2]; 0.024 µM) was 0.94. The viability ([2]; 0.12 µM) was 0.509, the viability ([2]; 0.6 µM) was 0.178 and the viability ([2]; 3 µM) was 0.182. It also gave a viability ([2]; 15 µM) of 0.0171, a viability ([3]; 0.024 µM) of 0.921 and a viability ([3]; 0.12 µM) of 0.849. The viability ([3]; 0.6 µM) was 0.939, the viability ([3]; 3 µM) was 0.84 and the viability ([3]; 15 µM) was 0.204. For the same test system, the viability ([4]; 0.016 µM) was 1.01, the viability ([4]; 0.08 µM) was 1.04 and the viability ([4]; 0.4 µM) was 1.01. For the same test system, the viability ([4]; 2 µM) was 1.21, the viability ([4]; 10 µM) was 0.998 and the viability ([5]; 0.00016 µM) was 0.875. It also gave a viability ([5]; 0.0008 µM) of 0.117, a viability ([5]; 0.004 µM) of 0.0482 and a viability ([5]; 0.02 µM) of 0.0455. The viability ([5]; 0.1 µM) was 0.0491, the viability ([6]; 0.0032 µM) was 0.873 and the viability ([6]; 0.016 µM) was 1. It also gave a viability ([6]; 0.08 µM) of 0.884, a viability ([6]; 0.4 µM) of 0.856 and a viability ([6]; 2 µM) of 0.96. The viability ([7]; 0.024 µM) was 0.992, the viability ([7]; 0.12 µM) was 1.17 and the viability ([7]; 0.6 µM) was 0.965. For the same test system, the viability ([7]; 3 µM) was 1.05, the viability ([7]; 15 µM) was 1.22 and the viability ([8]; 0.024 µM) was 1.02. The viability ([8]; 0.12 µM) was 0.957, the viability ([8]; 0.6 µM) was 0.902 and the viability ([8]; 3 µM) was 0.951. The viability ([8]; 15 µM) was 0.544, the viability ([9]; 0.024 µM) was 1.04 and the viability ([9]; 0.12 µM) was 0.901. It also gave a viability ([9]; 0.6 µM) of 0.959, a viability ([9]; 3 µM) of 0.785 and a viability ([9]; 15 µM) of 0.178. The viability ([10]; 0.024 µM) was 0.946, the viability ([10]; 0.12 µM) was 0.96 and the viability ([10]; 0.6 µM) was 0.916. The viability ([10]; 3 µM) was 0.896, the viability ([10]; 15 µM) was 0.758 and the viability ([11]; 0.00064 µM) was 0.899. It also gave a viability ([11]; 0.0032 µM) of 0.843, a viability ([11]; 0.016 µM) of 0.514 and a viability ([11]; 0.08 µM) of 0.23. For the same test system, the viability ([11]; 0.4 µM) was 0.17, the viability ([12]; 0.024 µM) was 0.996 and the viability ([12]; 0.12 µM) was 0.882. It also gave a viability ([12]; 0.6 µM) of 0.949, a viability ([12]; 3 µM) of 0.807 and a viability ([12]; 15 µM) of 0.814. The viability ([13]; 0.024 µM) was 0.724, the viability ([13]; 0.12 µM) was 0.79 and the viability ([13]; 0.6 µM) was 0.725. It also gave a viability ([13]; 3 µM) of 0.785, a viability ([13]; 15 µM) of 0.655 and a viability ([14]; 0.024 µM) of 0.814. It also gave a viability ([14]; 0.12 µM) of 0.827, a viability ([14]; 0.6 µM) of 0.55 and a viability ([14]; 3 µM) of 0.447. It also gave a viability ([14]; 15 µM) of 0.333, a viability ([15]; 0.024 µM) of 0.946 and a viability ([15]; 0.12 µM) of 1.05. For the same test system, the viability ([15]; 0.6 µM) was 0.969, the viability ([15]; 3 µM) was 1.02 and the viability ([15]; 15 µM) was 0.512.
Work on primary DLBCL patient cells (S082) yielded a viability ([1]; 0.0016 µM) of 0.786, a viability ([1]; 0.008 µM) of 0.587 and a viability ([1]; 0.04 µM) of 0.483. The viability ([1]; 0.2 µM) was 0.413, the viability ([1]; 1 µM) was 0.391 and the viability ([2]; 0.024 µM) was 0.992. The viability ([2]; 0.12 µM) was 0.622, the viability ([2]; 0.6 µM) was 0.328 and the viability ([2]; 3 µM) was 0.0161. For the same test system, the viability ([2]; 15 µM) was 0.0147, the viability ([3]; 0.024 µM) was 0.786 and the viability ([3]; 0.12 µM) was 0.499. It also gave a viability ([3]; 0.6 µM) of 0.13, a viability ([3]; 3 µM) of 0.0294 and a viability ([3]; 15 µM) of 0.0162. For the same test system, the viability ([4]; 0.016 µM) was 1.06, the viability ([4]; 0.08 µM) was 1.13 and the viability ([4]; 0.4 µM) was 1.01. The viability ([4]; 2 µM) was 1.07, the viability ([4]; 10 µM) was 1.15 and the viability ([5]; 0.00016 µM) was 0.895. For the same test system, the viability ([5]; 0.0008 µM) was 1.01, the viability ([5]; 0.004 µM) was 0.0334 and the viability ([5]; 0.02 µM) was 0.018. The viability ([5]; 0.1 µM) was 0.0218, the viability ([6]; 0.0032 µM) was 0.925 and the viability ([6]; 0.016 µM) was 1.1. It also gave a viability ([6]; 0.08 µM) of 0.88, a viability ([6]; 0.4 µM) of 0.953 and a viability ([6]; 2 µM) of 1.1. For the same test system, the viability ([7]; 0.024 µM) was 0.979, the viability ([7]; 0.12 µM) was 0.989 and the viability ([7]; 0.6 µM) was 0.988. It also gave a viability ([7]; 3 µM) of 1.03, a viability ([7]; 15 µM) of 1.05 and a viability ([8]; 0.024 µM) of 0.854. The viability ([8]; 0.12 µM) was 0.818, the viability ([8]; 0.6 µM) was 0.621 and the viability ([8]; 3 µM) was 0.265. For the same test system, the viability ([8]; 15 µM) was 0.224, the viability ([9]; 0.024 µM) was 0.916 and the viability ([9]; 0.12 µM) was 0.857. The viability ([9]; 0.6 µM) was 0.623, the viability ([9]; 3 µM) was 0.351 and the viability ([9]; 15 µM) was 0.256. It also gave a viability ([10]; 0.024 µM) of 0.845, a viability ([10]; 0.12 µM) of 0.83 and a viability ([10]; 0.6 µM) of 0.856. For the same test system, the viability ([10]; 3 µM) was 0.819, the viability ([10]; 15 µM) was 0.717 and the viability ([11]; 0.00064 µM) was 0.781. The viability ([11]; 0.0032 µM) was 0.404, the viability ([11]; 0.016 µM) was 0.0415 and the viability ([11]; 0.08 µM) was 0.0242. The viability ([11]; 0.4 µM) was 0.0275, the viability ([12]; 0.024 µM) was 0.94 and the viability ([12]; 0.12 µM) was 0.892. It also gave a viability ([12]; 0.6 µM) of 0.821, a viability ([12]; 3 µM) of 0.618 and a viability ([12]; 15 µM) of 0.364. It also gave a viability ([13]; 0.024 µM) of 0.76, a viability ([13]; 0.12 µM) of 0.417 and a viability ([13]; 0.6 µM) of 0.122. It also gave a viability ([13]; 3 µM) of 0.152, a viability ([13]; 15 µM) of 0.125 and a viability ([14]; 0.024 µM) of 0.858. The viability ([14]; 0.12 µM) was 0.613, the viability ([14]; 0.6 µM) was 0.476 and the viability ([14]; 3 µM) was 0.442. For the same test system, the viability ([14]; 15 µM) was 0.399, the viability ([15]; 0.024 µM) was 0.929 and the viability ([15]; 0.12 µM) was 1.02. The viability ([15]; 0.6 µM) was 0.84, the viability ([15]; 3 µM) was 0.904 and the viability ([15]; 15 µM) was 0.622.
